According to patent US20240384268A1, “Oligonucleotides” (Hudson Institute of Medical Research, priority 2021, published 2024):
In the oligonucleotide strings, read from the 5' end, every base follows the letter of its sugar. An asterisk marks phosphorothioate; unmarked linkages are phosphodiester. Other units and linkages are bracketed, terminal groups are in braces. A string of capitals states the bases alone. d = 2'-deoxy (DNA); m = 2'-O-methyl

Target: T1, TLR8 (Homo sapiens, UniProt Q9NR97)
T1 sequence (Q9NR97 27-1041): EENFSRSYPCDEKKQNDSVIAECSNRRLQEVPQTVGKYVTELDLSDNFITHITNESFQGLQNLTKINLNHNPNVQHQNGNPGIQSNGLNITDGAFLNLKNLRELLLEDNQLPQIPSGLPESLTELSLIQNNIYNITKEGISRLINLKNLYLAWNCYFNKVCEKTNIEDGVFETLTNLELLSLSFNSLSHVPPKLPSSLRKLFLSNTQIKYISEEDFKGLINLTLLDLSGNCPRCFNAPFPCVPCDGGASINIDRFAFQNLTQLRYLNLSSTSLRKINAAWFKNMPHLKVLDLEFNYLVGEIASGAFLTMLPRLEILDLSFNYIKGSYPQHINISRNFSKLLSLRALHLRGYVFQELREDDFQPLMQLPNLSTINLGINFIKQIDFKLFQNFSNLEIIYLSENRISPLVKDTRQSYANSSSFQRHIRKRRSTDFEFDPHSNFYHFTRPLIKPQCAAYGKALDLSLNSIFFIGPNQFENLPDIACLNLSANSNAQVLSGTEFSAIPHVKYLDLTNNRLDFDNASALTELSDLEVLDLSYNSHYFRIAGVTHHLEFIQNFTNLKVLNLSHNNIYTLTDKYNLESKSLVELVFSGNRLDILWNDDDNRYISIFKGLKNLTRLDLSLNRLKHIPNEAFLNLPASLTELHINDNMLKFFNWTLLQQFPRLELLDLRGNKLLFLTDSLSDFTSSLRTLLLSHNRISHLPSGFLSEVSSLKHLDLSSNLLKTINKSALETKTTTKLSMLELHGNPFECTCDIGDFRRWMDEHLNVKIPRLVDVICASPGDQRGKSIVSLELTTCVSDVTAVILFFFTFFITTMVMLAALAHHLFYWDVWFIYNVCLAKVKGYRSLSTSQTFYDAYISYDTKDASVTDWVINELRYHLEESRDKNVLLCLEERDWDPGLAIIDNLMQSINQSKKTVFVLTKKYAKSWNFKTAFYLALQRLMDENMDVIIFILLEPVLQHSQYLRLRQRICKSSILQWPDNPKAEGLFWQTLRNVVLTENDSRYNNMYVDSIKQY
Experiment: HEK-TLR8 NF-κB-luciferase reporter, R848 or Motolimod stimulation (potentiation or inhibition)
Type: cell-based
Set-up: expressed in transfected cells; host or cells: 293XLhTLR8 (HEK293)
Conditions: for TLR8 100 nM (averaged NF-κB-Luciferase level relative to R848 condition, fold increase): ASO 100 nM; for TLR8 100 nM (averaged NF-κB-Luciferase level relative to R848 condition, fold increase) / TLR8 500 nM (averaged NF-κB-Luciferase level relative to R848 condition, fold increase): relative to R848 only; for TLR8 500 nM (averaged NF-κB-Luciferase level relative to R848 condition, fold increase): ASO 500 nM; for TLR8-500 nM: averaged NF-κB-Luciferase relative to R848: 500 nM ASO, fold increase relative to R848 without ASO (Alharbi et al., 2020)

“CCTTGCACGTGGCTTC (antisense; LNA-modified, pattern not given here) [EGFR-1013 LNA V1]” was tested, and the “TLR8 100 nM (averaged NF-κB-Luciferase level relative to R848 condition, fold increase)” value was 1.315 and the “TLR8 500 nM (averaged NF-κB-Luciferase level relative to R848 condition, fold increase)” value was 2.414.
With “CTTGGCTTCGTGGAGC (antisense; LNA-modified, pattern not given here) [MB21D1-520 LNA V1]” the “TLR8 100 nM (averaged NF-κB-Luciferase level relative to R848 condition, fold increase)” value was 0.458 and the “TLR8 500 nM (averaged NF-κB-Luciferase level relative to R848 condition, fold increase)” value was 0.594.
With “CCAACACTTCGTGGGG (antisense; LNA-modified, pattern not given here) [HPRT LNA-668 V1]” the “TLR8 100 nM (averaged NF-κB-Luciferase level relative to R848 condition, fold increase)” value was 0.535 and the “TLR8 500 nM (averaged NF-κB-Luciferase level relative to R848 condition, fold increase)” value was 0.835.
With “TCCGCCCAAAGGGAAC (antisense; LNA-modified, pattern not given here) [HPRT LNA-1027 KL]” the “TLR8 100 nM (averaged NF-κB-Luciferase level relative to R848 condition, fold increase)” value was 0.541 and the “TLR8 500 nM (averaged NF-κB-Luciferase level relative to R848 condition, fold increase)” value was 0.725.
With “TCGTGGGGTCCTTTTC (antisense; LNA-modified, pattern not given here) [HPRT LNA-660 V1]” the “TLR8 100 nM (averaged NF-κB-Luciferase level relative to R848 condition, fold increase)” value was 0.778 and the “TLR8 500 nM (averaged NF-κB-Luciferase level relative to R848 condition, fold increase)” value was 2.966.
In the case of “TGTCCTTGCACGTGGC (antisense; LNA-modified, pattern not given here) [EGFR-1016 LNA V1]”, the “TLR8 100 nM (averaged NF-κB-Luciferase level relative to R848 condition, fold increase)” value is reported as 0.636 and the “TLR8 500 nM (averaged NF-κB-Luciferase level relative to R848 condition, fold increase)” value is reported as 1.158.
“AGGCCCTTCGCACTTC (antisense; LNA-modified, pattern not given here) [EGFR-1225 LNA V1]” was tested, and the “TLR8 100 nM (averaged NF-κB-Luciferase level relative to R848 condition, fold increase)” value was 0.507 and the “TLR8 500 nM (averaged NF-κB-Luciferase level relative to R848 condition, fold increase)” value was 0.967.
In the case of “ACACTTCGTGGGGTCCTTTT (antisense; 2'-MOE modified, pattern not given here) [HPRT-663 MOE]”, the “TLR8 100 nM” value (MOE-modified ASO at 100 nM, averaged NF-κB-Luciferase relative to R848 condition (fold increase)) is reported as 4.778 and the “TLR8 500 nM” value (MOE-modified ASO at 500 nM, averaged NF-κB-Luciferase relative to R848 condition (fold increase)) is reported as 6.320.
For “CCAGCAGGTCAGCAAA (antisense; LNA-modified, pattern not given here) [HPRT LNA-388 KL]”, the “TLR8 100 nM (averaged NF-κB-Luciferase level relative to R848 condition, fold increase)” value was 0.412 and the “TLR8 500 nM (averaged NF-κB-Luciferase level relative to R848 condition, fold increase)” value was 1.499.
“mG*mC*mA*mG*mU*C*T*C*C*A*T*G*T*C*C*mC*mA*mG*mG*mC (GCAGUCTCCATGTCCCAGGC; antisense; sugars from the 5' end m5 d10 m5, all phosphorothioate, methylation of C not given here) [[CDKN2B-AS1]2234]” was tested, and the “TLR8 potentiation of R848 sensing, 20-mer ASOs (in words)” value (HEK-TLR8, 500 nM ASO ~30 min, R848 overnight) was “weak potentiator of TLR8” and the “TLR8-500 nM: averaged NF-κB-Luciferase relative to R848” value (HEK-TLR8) was 2.25 fold.
“ACGTTCAGTCCTGTCC (antisense; LNA-modified, pattern not given here) [HPRT LNA-294 V1]” was tested, and the “TLR8 100 nM (averaged NF-κB-Luciferase level relative to R848 condition, fold increase)” value was 0.356 and the “TLR8 500 nM (averaged NF-κB-Luciferase level relative to R848 condition, fold increase)” value was 0.493.
In the case of “GCACACTTCGTACCCA (antisense; LNA-modified, pattern not given here) [CAMSAP1-4915 LNA V1]”, the “TLR8 100 nM (averaged NF-κB-Luciferase level relative to R848 condition, fold increase)” value is reported as 0.319 and the “TLR8 500 nM (averaged NF-κB-Luciferase level relative to R848 condition, fold increase)” value is reported as 1.091.
“TCCTTGCACGTGGCTT (antisense; LNA-modified, pattern not given here) [EGFR-1014 LNA V1]” was tested, and the “TLR8 100 nM (averaged NF-κB-Luciferase level relative to R848 condition, fold increase)” value was 0.491 and the “TLR8 500 nM (averaged NF-κB-Luciferase level relative to R848 condition, fold increase)” value was 0.601.
With “CTTCGTGGGGTCCTTT (antisense; LNA-modified, pattern not given here) [HPRT LNA-662 V1]” the “TLR8 100 nM (averaged NF-κB-Luciferase level relative to R848 condition, fold increase)” value was 1.097 and the “TLR8 500 nM (averaged NF-κB-Luciferase level relative to R848 condition, fold increase)” value was 4.366.
With “GTCTTCATCGGCCCTG (antisense; LNA-modified, pattern not given here) [CAMSAP1-2113 LNA V1]” the “TLR8 100 nM (averaged NF-κB-Luciferase level relative to R848 condition, fold increase)” value was 0.664 and the “TLR8 500 nM (averaged NF-κB-Luciferase level relative to R848 condition, fold increase)” value was 2.086.
In the case of “TCTTGGCTTCGTGGAG (antisense; LNA-modified, pattern not given here) [MB21D1-521 LNA V1]”, the “TLR8 100 nM (averaged NF-κB-Luciferase level relative to R848 condition, fold increase)” value is reported as 0.541 and the “TLR8 500 nM (averaged NF-κB-Luciferase level relative to R848 condition, fold increase)” value is reported as 0.197.
For “TGACAAAGATTCACTG (antisense; LNA-modified, pattern not given here) [HPRT LNA-1353 KL]”, the “TLR8 100 nM (averaged NF-κB-Luciferase level relative to R848 condition, fold increase)” value was 0.633 and the “TLR8 500 nM (averaged NF-κB-Luciferase level relative to R848 condition, fold increase)” value was 1.756.
In the case of “GATGGCCTCCCATCTC (antisense; LNA-modified, pattern not given here) [HPRT LNA-331 V1]”, the “TLR8 100 nM (averaged NF-κB-Luciferase level relative to R848 condition, fold increase)” value is reported as 0.278 and the “TLR8 500 nM (averaged NF-κB-Luciferase level relative to R848 condition, fold increase)” value is reported as 0.186.
In the case of “CCTCCCATCTCCTTCA (antisense; LNA-modified, pattern not given here) [HPRT LNA-326 V1]”, the “TLR8 100 nM (averaged NF-κB-Luciferase level relative to R848 condition, fold increase)” value is reported as 1.469 and the “TLR8 500 nM (averaged NF-κB-Luciferase level relative to R848 condition, fold increase)” value is reported as 6.759.
“mU*mA*mU*mU*mU*C*C*A*C*A*T*G*C*C*C*mA*mG*mU*mG*mU (mU*mA*mU*mU*mU*dC*dC*dA*dC*dA*dT*dG*dC*dC*dC*mA*mG*mU*mG*mU; antisense) [[CDKN2B-AS1]627]” was tested, and the “TLR8-500 nM: averaged NF-κB-Luciferase relative to R848” value (HEK-TLR8) was 3.87 fold.
For “AGCTTCGAGGCCCCAG (antisense; LNA-modified, pattern not given here) [MB21D1-616 LNA V1]”, the “TLR8 100 nM (averaged NF-κB-Luciferase level relative to R848 condition, fold increase)” value was 0.331 and the “TLR8 500 nM (averaged NF-κB-Luciferase level relative to R848 condition, fold increase)” value was 0.865.
“GGCACTTTGCCTCCTT (antisense; LNA-modified, pattern not given here) [EGFR-2859 LNA V1]” was tested, and the “TLR8 100 nM (averaged NF-κB-Luciferase level relative to R848 condition, fold increase)” value was 0.652 and the “TLR8 500 nM (averaged NF-κB-Luciferase level relative to R848 condition, fold increase)” value was 0.862.
“mA*mA*mA*mG*mC*A*G*T*C*T*C*C*A*T*G*mU*mC*mC*mC*mA (mA*mA*mA*mG*mC*dA*dG*dT*dC*dT*dC*dC*dA*dT*dG*mU*mC*mC*mC*mA; antisense) [[CDKN2B-AS1]2237]” was tested, and the “TLR8-500 nM: averaged NF-κB-Luciferase relative to R848” value (HEK-TLR8) was 3.38 fold.
In the case of “mA*mG*mU*mG*mG*C*A*C*A*T*A*C*C*A*C*mA*mC*mC*mC*mU (AGUGGCACATACCACACCCU; antisense; sugars from the 5' end m5 d10 m5, all phosphorothioate, methylation of C not given here) [[CDKN2B-AS1]495]”, the “TLR8-500 nM: averaged NF-κB-Luciferase relative to R848” value (HEK-TLR8) is reported as 4.48 fold.
For “CGGCCTCGGAAGCTCT (antisense; LNA-modified, pattern not given here) [MB21D1-168 LNA V1]”, the “TLR8 100 nM (averaged NF-κB-Luciferase level relative to R848 condition, fold increase)” value was 0.402 and the “TLR8 500 nM (averaged NF-κB-Luciferase level relative to R848 condition, fold increase)” value was 0.219.
For “TCCACAATCAAGACAT (antisense; LNA-modified, pattern not given here) [HPRT LNA-551 KL]”, the “TLR8 100 nM (averaged NF-κB-Luciferase level relative to R848 condition, fold increase)” value was 0.474 and the “TLR8 500 nM (averaged NF-κB-Luciferase level relative to R848 condition, fold increase)” value was 0.893.
With “GTGATGGCCTCCCATC (antisense; LNA-modified, pattern not given here) [HPRT LNA-333 V1]” the “TLR8 100 nM (averaged NF-κB-Luciferase level relative to R848 condition, fold increase)” value was 0.517 and the “TLR8 500 nM (averaged NF-κB-Luciferase level relative to R848 condition, fold increase)” value was 1.112.
With “CACTTCGTGGGGTCCT (antisense; LNA-modified, pattern not given here) [HPRT LNA-664 V1]” the “TLR8 100 nM (averaged NF-κB-Luciferase level relative to R848 condition, fold increase)” value was 0.425 and the “TLR8 500 nM (averaged NF-κB-Luciferase level relative to R848 condition, fold increase)” value was 1.446.
With “CCCACTTGGCAGACCA (antisense; LNA-modified, pattern not given here) [CTNN2B-1576 LNA V1]” the “TLR8 100 nM (averaged NF-κB-Luciferase level relative to R848 condition, fold increase)” value was 0.899 and the “TLR8 500 nM (averaged NF-κB-Luciferase level relative to R848 condition, fold increase)” value was 1.865.
In the case of “TGACTGTCTTGAGGGT (antisense; LNA-modified, pattern not given here) [MB21D1-1483 LNA KL]”, the “TLR8 100 nM (averaged NF-κB-Luciferase level relative to R848 condition, fold increase)” value is reported as 0.973 and the “TLR8 500 nM (averaged NF-κB-Luciferase level relative to R848 condition, fold increase)” value is reported as 3.210.
With “AGGACTCCAGATGTTT (antisense; LNA-modified, pattern not given here) [HPRT LNA pos cont]” the “TLR8 100 nM (averaged NF-κB-Luciferase level relative to R848 condition, fold increase)” value was 0.278 and the “TLR8 500 nM (averaged NF-κB-Luciferase level relative to R848 condition, fold increase)” value was 1.034.
